Key:
Assay type in all cases: functional
U-251 = test: Growth inhibition of human U251 cells assessed as cell growth at 10^-7 M after 48 hrs by sulforhodamine B assay; conditions: U-251, 48 h, read-out: Activity
SF-539 = test: Growth inhibition of human SF539 cells assessed as cell growth at 10^-7 M after 48 hrs by sulforhodamine B assay; conditions: SF-539, 48 h, read-out: Activity
K562 [1] = test: Growth inhibition of human K562 cells assessed as cell growth at 10^-7 M after 48 hrs by sulforhodamine B assay; conditions: K562, 48 h, read-out: Activity
MDA-MB-468 = test: Growth inhibition of human MDA-MB-468 cells assessed as cell growth at 10^-8 M after 48 hrs by sulforhodamine B assay; conditions: MDA-MB-468, 48 h, read-out: Activity
T47D = test: Growth inhibition of human T47D cells assessed as cell growth at 10^-4 M after 48 hrs by sulforhodamine B assay; conditions: read-out: Activity
UO-31 [2] = test: Growth inhibition of human UO31 cells assessed as cell growth at 10^-4 M after 48 hrs by sulforhodamine B assay; conditions: UO-31, 48 h, read-out: Activity
MDA-MB-231 = test: Growth inhibition of human MDA-MB-231 cells assessed as cell growth at 10^-8 M after 48 hrs by sulforhodamine B assay; conditions: MDA-MB-231, 48 h, read-out: Activity
OVCAR-8 = test: Growth inhibition of human OVCAR8 cells assessed as cell growth at 10^-4 M after 48 hrs by sulforhodamine B assay; conditions: OVCAR-8, 48 h, read-out: Activity
UACC-257 [3] = test: Growth inhibition of human UACC257 cells assessed as cell growth at 10^-4 M after 48 hrs by sulforhodamine B assay; conditions: UACC-257, 48 h, read-out: Activity
SK-MEL-5 = test: Growth inhibition of human SK-MEL-5 cells assessed as cell growth at 10^-4 M after 48 hrs by sulforhodamine B assay; conditions: SK-MEL-5, 48 h, read-out: Activity
NCI-H522 = test: Growth inhibition of human NCI-H522 cells assessed as cell growth at 10^-4 M after 48 hrs by sulforhodamine B assay; conditions: NCI-H522, 48 h, read-out: Activity
UO-31 [4] = test: Growth inhibition of human UO31 cells assessed as cell growth at 10^-8 M after 48 hrs by sulforhodamine B assay; conditions: UO-31, 48 h, read-out: Activity
SNB-75 [5] = test: Growth inhibition of human SNB75 cells assessed as cell growth at 10^-8 M after 48 hrs by sulforhodamine B assay; conditions: SNB-75, 48 h, read-out: Activity
HOP-92 = test: Growth inhibition of human HOP92 cells assessed as cell growth at 10^-8 M after 48 hrs by sulforhodamine B assay; conditions: HOP-92, 48 h, read-out: Activity
MOLT-4 = test: Growth inhibition of human MOLT4 cells assessed as cell growth at 10^-8 M after 48 hrs by sulforhodamine B assay; conditions: MOLT-4, 48 h, read-out: Activity
NCI-H460 = test: Growth inhibition of human NCI-H460 cells assessed as cell growth at 10^-4 M after 48 hrs by sulforhodamine B assay; conditions: NCI-H460, 48 h, read-out: Activity
K562 [6] = test: Growth inhibition of human K562 cells assessed as cell growth at 10^-4 M after 48 hrs by sulforhodamine B assay; conditions: K562, 48 h, read-out: Activity
SK-OV-3 [7] = test: Growth inhibition of human SKOV3 cells assessed as cell growth at 10^-5 M after 48 hrs by sulforhodamine B assay; conditions: SK-OV-3, 48 h, read-out: Activity
SNB-75 [8] = test: Growth inhibition of human SNB75 cells assessed as cell growth at 10^-5 M after 48 hrs by sulforhodamine B assay; conditions: SNB-75, 48 h, read-out: Activity
HCT-116 = test: Growth inhibition of human HCT116 cells assessed as cell growth at 10^-5 M after 48 hrs by sulforhodamine B assay; conditions: HCT-116, 48 h, read-out: Activity
NCI-H23 [9] = test: Growth inhibition of human NCI-H23 cells assessed as cell growth at 10^-5 M after 48 hrs by sulforhodamine B assay; conditions: NCI-H23, 48 h, read-out: Activity
SR [10] = test: Growth inhibition of human SR cells assessed as cell growth at 10^-5 M after 48 hrs by sulforhodamine B assay; conditions: read-out: Activity
UO-31 [11] = test: Growth inhibition of human UO31 cells assessed as cell growth at 10^-6 M after 48 hrs by sulforhodamine B assay; conditions: UO-31, 48 h, read-out: Activity
[12] = Growth inhibition of human NCI-ADR-RES cells assessed as cell growth at 10^-6 M after 48 hrs by sulforhodamine B assay; conditions: read-out: Activity
IGROV-1 = test: Growth inhibition of human IGROV1 cells assessed as cell growth at 10^-6 M after 48 hrs by sulforhodamine B assay; conditions: IGROV-1, 48 h, read-out: Activity
UACC-257 [13] = test: Growth inhibition of human UACC257 cells assessed as cell growth at 10^-6 M after 48 hrs by sulforhodamine B assay; conditions: UACC-257, 48 h, read-out: Activity
SK-MEL-28 = test: Growth inhibition of human SK-MEL-28 cells assessed as cell growth at 10^-6 M after 48 hrs by sulforhodamine B assay; conditions: SK-MEL-28, 48 h, read-out: Activity
SNB-19 = test: Growth inhibition of human SNB19 cells assessed as cell growth at 10^-6 M after 48 hrs by sulforhodamine B assay; conditions: SNB-19, 48 h, read-out: Activity
SW-620 = test: Growth inhibition of human SW620 cells assessed as cell growth at 10^-6 M after 48 hrs by sulforhodamine B assay; conditions: SW-620, 48 h, read-out: Activity
HT-29 = test: Growth inhibition of human HT-29 cells assessed as cell growth at 10^-6 M after 48 hrs by sulforhodamine B assay; conditions: HT-29, 48 h, read-out: Activity
NCI-H23 [14] = test: Growth inhibition of human NCI-H23 cells assessed as cell growth at 10^-6 M after 48 hrs by sulforhodamine B assay; conditions: NCI-H23, 48 h, read-out: Activity
SR [15] = test: Growth inhibition of human SR cells assessed as cell growth at 10^-6 M after 48 hrs by sulforhodamine B assay; conditions: read-out: Activity
A549 = test: Growth inhibition of human A549/ATCC cells assessed as cell growth at 10^-6 M after 48 hrs by sulforhodamine B assay; conditions: A549, 48 h, read-out: Activity
UO-31 [16] = test: Growth inhibition of human UO31 cells assessed as cell growth at 10^-7 M after 48 hrs by sulforhodamine B assay; conditions: UO-31, 48 h, read-out: Activity
RXF 393 = test: Growth inhibition of human RXF393 cells assessed as cell growth at 10^-7 M after 48 hrs by sulforhodamine B assay; conditions: RXF 393, 48 h, read-out: Activity
CAKI-1 = test: Growth inhibition of human CAKI-1 cells assessed as cell growth at 10^-7 M after 48 hrs by sulforhodamine B assay; conditions: CAKI-1, 48 h, read-out: Activity
SK-OV-3 [17] = test: Growth inhibition of human SKOV3 cells assessed as cell growth at 10^-7 M after 48 hrs by sulforhodamine B assay; conditions: SK-OV-3, 48 h, read-out: Activity
UACC-257 [18] = test: Growth inhibition of human UACC257 cells assessed as cell growth at 10^-7 M after 48 hrs by sulforhodamine B assay; conditions: UACC-257, 48 h, read-out: Activity

COc1cc(-c2nn(-c3cccc(NC(=O)c4ccc(N5CCOCC5)c(C(F)(F)F)c4)c3)cc2-c2ccncc2)ccc1Cl
growth at 0.1 µM (U-251): 88% | growth at 0.1 µM (SF-539): 68% | growth at 0.1 µM (K562 [1]): 29% | growth at 0.01 µM (MDA-MB-468): 95% | growth at 100 µM (T47D): 13% | growth at 100 µM (UO-31 [2]): -13% | growth at 0.01 µM (MDA-MB-231): 95% | growth at 100 µM (OVCAR-8): 1% | growth at 100 µM (UACC-257 [3]): -31% | growth at 100 µM (SK-MEL-5): -85% | growth at 100 µM (NCI-H522): -23% | growth at 0.01 µM (UO-31 [4]): 91% | growth at 0.01 µM (SNB-75 [5]): 89% | growth at 0.01 µM (HOP-92): 70% | growth at 0.01 µM (MOLT-4): 109% | growth at 100 µM (NCI-H460): 1% | growth at 100 µM (K562 [6]): 3% | growth at 10 µM (SK-OV-3 [7]): -11% | growth at 10 µM (SNB-75 [8]): -13% | growth at 10 µM (HCT-116): 8% | growth at 10 µM (NCI-H23 [9]): 4% | growth at 10 µM (SR [10]): 4% | growth at 1 µM (UO-31 [11]): 33% | growth at 1 µM [12]: 11% | growth at 1 µM (IGROV-1): 33% | growth at 1 µM (UACC-257 [13]): 49% | growth at 1 µM (SK-MEL-28): 56% | growth at 1 µM (SNB-19): 38% | growth at 1 µM (SW-620): 36% | growth at 1 µM (HT-29): 9% | growth at 1 µM (NCI-H23 [14]): 47% | growth at 1 µM (SR [15]): 8% | growth at 1 µM (A549): 31% | growth at 0.1 µM (UO-31 [16]): 64% | growth at 0.1 µM (RXF 393): 78% | growth at 0.1 µM (CAKI-1): 87% | growth at 0.1 µM (SK-OV-3 [17]): 80% | growth at 0.1 µM (UACC-257 [18]): 74%

— ChEMBL document CHEMBL2440076, “New triarylpyrazoles as broad-spectrum anticancer agents: design, synthesis, and biological evaluation” (Eur J Med Chem, 2013)
